Experimental data: patent US20120122860A1, “SOLID FORMS OF SULFONAMIDES AND AMINO ACIDS” (Plexxikon, Inc., priority 2009, published 2012)

Tests used:
Src = Src (Homo sapiens, UniProt P12931); test: Kinase activity assay, Src
B-Raf = B-Raf (Homo sapiens, UniProt P15056); test: Kinase activity assay, B-Raf; type: biochemical; conditions: read-out: activity toward kinase B-Raf, IC50
Kit = Kit (Homo sapiens, UniProt P10721); test: Kinase activity assay, Kit
C-Raf = C-Raf (Homo sapiens, UniProt P04049); test: Kinase activity assay, C-Raf
Fms = Fms (Homo sapiens, UniProt P07333); test: Kinase activity assay, Fms
Kdr = Kdr (Homo sapiens, UniProt P35968); test: Kinase activity assay, Kdr
B-Raf V600E = B-Raf V600E (Homo sapiens, UniProt P15056, V600E); test: Kinase activity assay, B-Raf V600E; type: biochemical; conditions: read-out: activity toward kinase B-Raf V600E, IC50
MAP4K4 = MAP4K4 (Homo sapiens, UniProt O95819); test: Kinase activity assay, MAP4K4

Chain of Fms (P07333 20-972): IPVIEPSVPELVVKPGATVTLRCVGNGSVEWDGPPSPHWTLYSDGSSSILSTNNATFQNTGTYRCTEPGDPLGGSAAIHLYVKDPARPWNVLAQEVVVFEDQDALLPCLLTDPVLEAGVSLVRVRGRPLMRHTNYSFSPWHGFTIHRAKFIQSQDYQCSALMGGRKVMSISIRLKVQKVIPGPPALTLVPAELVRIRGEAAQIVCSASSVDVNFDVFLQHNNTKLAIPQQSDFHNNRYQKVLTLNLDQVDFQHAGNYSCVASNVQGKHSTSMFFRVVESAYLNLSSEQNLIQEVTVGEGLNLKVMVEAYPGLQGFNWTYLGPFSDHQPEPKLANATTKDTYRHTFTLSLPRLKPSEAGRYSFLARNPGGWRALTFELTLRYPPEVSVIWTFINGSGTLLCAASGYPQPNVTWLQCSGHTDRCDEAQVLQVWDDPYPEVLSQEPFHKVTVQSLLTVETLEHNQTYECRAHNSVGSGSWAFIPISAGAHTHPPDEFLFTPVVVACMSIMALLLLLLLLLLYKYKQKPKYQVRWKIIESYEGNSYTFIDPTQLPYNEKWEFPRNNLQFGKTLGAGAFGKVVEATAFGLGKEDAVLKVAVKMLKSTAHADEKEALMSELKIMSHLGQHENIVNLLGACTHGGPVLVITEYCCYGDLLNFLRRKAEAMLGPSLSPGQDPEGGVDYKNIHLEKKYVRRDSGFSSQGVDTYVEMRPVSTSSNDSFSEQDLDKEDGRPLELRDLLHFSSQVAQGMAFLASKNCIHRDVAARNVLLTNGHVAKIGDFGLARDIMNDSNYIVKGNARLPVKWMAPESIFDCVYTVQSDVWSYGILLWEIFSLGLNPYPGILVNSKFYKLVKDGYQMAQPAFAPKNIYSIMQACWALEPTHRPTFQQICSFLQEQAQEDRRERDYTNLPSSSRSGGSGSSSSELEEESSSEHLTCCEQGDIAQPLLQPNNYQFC
Chain of Kdr (P35968 20-1356): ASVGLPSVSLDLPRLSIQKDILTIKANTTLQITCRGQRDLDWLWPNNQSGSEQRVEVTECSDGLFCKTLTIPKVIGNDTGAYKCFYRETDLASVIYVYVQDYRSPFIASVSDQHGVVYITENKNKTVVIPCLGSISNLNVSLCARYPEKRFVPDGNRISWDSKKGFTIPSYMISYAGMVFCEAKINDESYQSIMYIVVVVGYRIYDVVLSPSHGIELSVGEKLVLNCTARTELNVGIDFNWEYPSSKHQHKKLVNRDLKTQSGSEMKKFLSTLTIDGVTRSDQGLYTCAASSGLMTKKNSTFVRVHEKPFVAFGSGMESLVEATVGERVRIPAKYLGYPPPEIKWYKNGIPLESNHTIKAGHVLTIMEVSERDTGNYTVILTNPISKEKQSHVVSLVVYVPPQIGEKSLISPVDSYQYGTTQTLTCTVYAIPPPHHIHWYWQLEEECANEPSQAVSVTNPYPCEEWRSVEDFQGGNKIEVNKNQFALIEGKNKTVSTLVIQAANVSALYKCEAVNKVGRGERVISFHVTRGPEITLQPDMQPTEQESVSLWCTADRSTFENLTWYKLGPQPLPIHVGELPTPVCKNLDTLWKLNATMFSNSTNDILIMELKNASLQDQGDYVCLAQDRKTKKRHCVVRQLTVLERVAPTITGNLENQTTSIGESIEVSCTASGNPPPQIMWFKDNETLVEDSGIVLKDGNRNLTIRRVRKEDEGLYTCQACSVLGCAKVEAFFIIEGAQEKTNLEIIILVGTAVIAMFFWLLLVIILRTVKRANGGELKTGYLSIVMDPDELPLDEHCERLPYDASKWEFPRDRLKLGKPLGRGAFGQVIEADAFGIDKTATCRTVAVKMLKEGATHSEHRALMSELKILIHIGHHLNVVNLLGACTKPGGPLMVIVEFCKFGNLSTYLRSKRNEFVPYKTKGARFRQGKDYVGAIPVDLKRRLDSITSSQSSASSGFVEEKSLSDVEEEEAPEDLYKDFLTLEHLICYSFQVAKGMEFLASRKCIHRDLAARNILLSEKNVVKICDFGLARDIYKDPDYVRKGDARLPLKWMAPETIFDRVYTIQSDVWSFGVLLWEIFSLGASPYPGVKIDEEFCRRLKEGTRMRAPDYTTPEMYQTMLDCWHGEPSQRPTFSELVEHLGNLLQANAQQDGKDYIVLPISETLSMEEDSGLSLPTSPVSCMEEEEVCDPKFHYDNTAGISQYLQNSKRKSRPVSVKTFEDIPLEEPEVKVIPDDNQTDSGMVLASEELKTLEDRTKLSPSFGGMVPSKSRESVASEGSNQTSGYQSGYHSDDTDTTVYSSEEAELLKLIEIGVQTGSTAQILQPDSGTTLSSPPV
Chain of Src (P12931 whole entry): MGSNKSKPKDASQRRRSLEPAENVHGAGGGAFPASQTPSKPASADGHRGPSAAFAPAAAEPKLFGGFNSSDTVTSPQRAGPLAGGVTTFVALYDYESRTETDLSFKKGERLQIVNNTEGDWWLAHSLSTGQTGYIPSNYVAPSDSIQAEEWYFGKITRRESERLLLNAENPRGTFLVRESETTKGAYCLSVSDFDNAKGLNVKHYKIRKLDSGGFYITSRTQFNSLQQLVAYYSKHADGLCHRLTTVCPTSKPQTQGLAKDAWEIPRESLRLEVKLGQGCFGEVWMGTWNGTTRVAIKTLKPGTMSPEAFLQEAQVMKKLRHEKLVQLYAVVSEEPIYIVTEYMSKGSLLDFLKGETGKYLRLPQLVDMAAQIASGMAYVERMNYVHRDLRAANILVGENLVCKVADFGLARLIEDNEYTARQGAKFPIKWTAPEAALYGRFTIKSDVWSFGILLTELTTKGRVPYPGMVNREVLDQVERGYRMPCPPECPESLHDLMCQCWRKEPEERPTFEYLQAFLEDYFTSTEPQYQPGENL
Chain of C-Raf (P04049 whole entry): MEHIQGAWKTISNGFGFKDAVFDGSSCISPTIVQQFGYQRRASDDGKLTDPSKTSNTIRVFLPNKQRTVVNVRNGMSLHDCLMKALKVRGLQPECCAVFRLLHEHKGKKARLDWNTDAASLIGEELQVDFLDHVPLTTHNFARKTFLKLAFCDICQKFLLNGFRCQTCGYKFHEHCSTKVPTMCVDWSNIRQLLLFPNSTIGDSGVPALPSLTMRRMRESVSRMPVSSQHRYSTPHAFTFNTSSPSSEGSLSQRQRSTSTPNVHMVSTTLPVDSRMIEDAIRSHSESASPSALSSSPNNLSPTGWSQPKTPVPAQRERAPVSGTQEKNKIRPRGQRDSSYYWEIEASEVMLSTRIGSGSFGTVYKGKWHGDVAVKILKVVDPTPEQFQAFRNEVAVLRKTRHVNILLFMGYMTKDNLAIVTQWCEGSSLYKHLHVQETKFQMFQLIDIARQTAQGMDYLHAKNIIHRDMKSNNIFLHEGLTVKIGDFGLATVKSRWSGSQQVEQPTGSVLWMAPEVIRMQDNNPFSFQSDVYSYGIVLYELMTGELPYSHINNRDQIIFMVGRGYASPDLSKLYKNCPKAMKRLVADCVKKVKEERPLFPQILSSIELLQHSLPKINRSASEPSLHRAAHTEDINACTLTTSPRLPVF
Chain of B-Raf (P15056 whole entry): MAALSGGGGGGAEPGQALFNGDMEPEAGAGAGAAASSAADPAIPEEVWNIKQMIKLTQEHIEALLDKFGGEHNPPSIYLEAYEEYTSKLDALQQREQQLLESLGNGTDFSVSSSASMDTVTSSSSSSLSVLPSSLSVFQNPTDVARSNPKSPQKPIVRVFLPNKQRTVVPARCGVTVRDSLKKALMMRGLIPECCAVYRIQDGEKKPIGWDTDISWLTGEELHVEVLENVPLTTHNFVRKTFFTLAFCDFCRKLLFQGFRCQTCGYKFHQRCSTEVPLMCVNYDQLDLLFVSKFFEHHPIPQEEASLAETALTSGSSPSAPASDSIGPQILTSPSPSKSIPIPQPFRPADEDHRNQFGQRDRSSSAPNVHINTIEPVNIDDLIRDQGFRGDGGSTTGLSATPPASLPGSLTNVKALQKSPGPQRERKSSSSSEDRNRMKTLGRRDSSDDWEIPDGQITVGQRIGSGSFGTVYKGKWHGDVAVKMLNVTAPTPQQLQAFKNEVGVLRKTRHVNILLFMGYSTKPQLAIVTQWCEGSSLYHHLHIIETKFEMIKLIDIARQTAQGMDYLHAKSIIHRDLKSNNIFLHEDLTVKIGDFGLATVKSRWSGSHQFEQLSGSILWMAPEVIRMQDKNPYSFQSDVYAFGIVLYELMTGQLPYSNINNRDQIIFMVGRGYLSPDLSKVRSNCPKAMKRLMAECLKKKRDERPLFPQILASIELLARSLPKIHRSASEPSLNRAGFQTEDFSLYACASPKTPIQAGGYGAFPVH
Chain of B-Raf V600E (P15056 whole entry V600E): as the sequence (P15056 whole entry) above, with V600E counted along it

| IC50 (Src) [µM] | IC50 (B-Raf) [µM] | IC50 (Kit) [µM] | IC50 (C-Raf) [µM] | IC50 (Fms) [µM] | IC50 (Kdr) [µM] | IC50 (B-Raf V600E) [µM] | IC50 (MAP4K4) [µM] | Compound |
| --- | --- | --- | --- | --- | --- | --- | --- | --- |
| ≤ 10 | ≤ 10 | ≤ 10 | ≤ 10 | ≤ 10 | ≤ 10 |  |  | CN1CCOc2cc(S(=O)(=O)Nc3ccc(F)c(C(=O)c4c[nH]c5ncc(Cl)cc45)c3F)ccc21 [P-2001, 4-Methyl-3,4-dihydro-2H-benzo[1,4]oxazine-7-sulfonic acid [3-(5-chloro-1H-pyrrolo[2,3-b]pyridine-3-carbonyl)-2,4-difluoro-phenyl]-amide] |
| ≤ 10 | ≤ 10 | ≤ 10 | ≤ 10 | ≤ 10 | ≤ 10 | ≤ 10 |  | Cc1cc(C)cc(S(=O)(=O)Nc2ccc(F)c(C(=O)c3c[nH]c4ncc(Cl)cc34)c2F)c1 [P-2004, N-[3-(5-Chloro-1H-pyrrolo[2,3-b]pyridine-3-carbonyl)-2,4-difluoro-phenyl]-3,5-dimethyl-benzenesulfonamide] |
| ≤ 10 | ≤ 10 | ≤ 10 | ≤ 10 | ≤ 10 | ≤ 10 | ≤ 10 |  | COc1ccc(S(=O)(=O)Nc2ccc(F)c(C(=O)c3c[nH]c4ncc(Cl)cc34)c2F)cc1F [P-2005, N-[3-(5-Chloro-1H-pyrrolo[2,3-b]pyridine-3-carbonyl)-2,4-difluoro-phenyl]-3-fluoro-4-methoxy-benzenesulfonamide] |
| ≤ 10 | ≤ 10 | ≤ 10 | ≤ 10 | ≤ 10 | ≤ 10 | ≤ 10 |  | Cc1cc(F)ccc1S(=O)(=O)Nc1ccc(F)c(C(=O)c2c[nH]c3ncc(Cl)cc23)c1F [P-2006, N-[3-(5-Chloro-1H-pyrrolo[2,3-b]pyridine-3-carbonyl)-2,4-difluoro-phenyl]-4-fluoro-2-methyl-benzenesulfonamide] |
| ≤ 10 | ≤ 10 | ≤ 10 | ≤ 10 | ≤ 10 |  | ≤ 10 |  | O=C(c1c(F)ccc(NS(=O)(=O)c2ccc3c(c2)CCO3)c1F)c1c[nH]c2ncc(Cl)cc12 [P-2007, 2,3-Dihydro-benzofuran-5-sulfonic acid [3-(5-chloro-1H-pyrrolo[2,3-b]pyridine-3-carbonyl)-2,4-difluoro-phenyl]-amide] |
| ≤ 10 | ≤ 10 | ≤ 10 | ≤ 10 |  | ≤ 10 | ≤ 10 | ≤ 10 | Cc1cnc2[nH]cc(C(=O)c3c(F)ccc(NS(=O)(=O)c4ccc(F)cc4F)c3F)c2c1 [P-2025, N-[2,4-Difluoro-3-(5-methyl-1H-pyrrolo[2,3-b]pyridine-3-carbonyl)-phenyl]-2,4-difluoro-benzenesulfonamide] |
| ≤ 10 | ≤ 10 | ≤ 10 | ≤ 10 |  | ≤ 10 | ≤ 10 | ≤ 10 | O=C(c1c(F)ccc(NS(=O)(=O)c2ccc(F)cc2)c1F)c1c[nH]c2nccc(Cl)c12 [P-2026, N-[3-(4-Chloro-1H-pyrrolo[2,3-b]pyridine-3-carbonyl)-2,4-difluoro-phenyl]-4-fluoro-benzenesulfonamide] |
| ≤ 10 |  |  |  |  |  |  | ≤ 10 | O=C(c1c(F)ccc(NS(=O)(=O)c2cccnc2)c1F)c1c[nH]c2nccc(Cl)c12 [P-2074, Pyridine-3-sulfonic acid [3-(4-chloro-1H-pyrrolo[2,3-b]pyridine-3-carbonyl)-2,4-difluoro-phenyl]-amide] |
|  |  |  |  |  | ≤ 10 |  | ≤ 10 | O=C(c1cccc(NS(=O)(=O)c2cccnc2)c1)c1c[nH]c2ncc(Cl)cc12 [P-2146, Pyridine-3-sulfonic acid [3-(5-chloro-1H-pyrrolo[2,3-b]pyridine-3-carbonyl)-phenyl]-amide] |
| ≤ 10 | ≤ 10 | ≤ 10 | ≤ 10 | ≤ 10 | ≤ 10 | ≤ 10 |  | CCCS(=O)(=O)Nc1ccc(F)c(C(=O)c2c[nH]c3ncc(-c4ccc(F)nc4)cc23)c1F [P-2155, Propane-1-sulfonic acid {2,4-difluoro-3-[5-(6-fluoro-pyridin-3-yl)-1H-pyrrolo[2,3-b]pyridine-3-carbonyl]-phenyl}-amide] |
| ≤ 10 | ≤ 10 | ≤ 10 | ≤ 10 | ≤ 10 | ≤ 10 | ≤ 10 |  | CCCS(=O)(=O)Nc1ccc(F)c(C(=O)c2c[nH]c3ncc(-c4ccc(S(=O)(=O)N5CCOCC5)cc4)cc23)c1F [P-2166, Propane-1-sulfonic acid (2,4-difluoro-3-{5-[4-(morpholine-4-sulfonyl)-phenyl]-1H-pyrrolo[2,3-b]pyridine-3-carbonyl}-phenyl)-amide] |
| ≤ 10 | ≤ 10 | ≤ 10 | ≤ 10 | ≤ 10 | ≤ 10 | ≤ 10 |  | CCCS(=O)(=O)Nc1ccc(F)c(C(=O)c2c[nH]c3ncc(-c4ccc(S(=O)(=O)NC)cc4)cc23)c1F [P-2167, 4-{3-[2,6-Difluoro-3-(propane-1-sulfonylamino)-benzoyl]-1H-pyrrolo[2,3-b]pyridin-5-yl}-N-methyl-benzenesulfonamide] |
| ≤ 10 | ≤ 10 | ≤ 10 | ≤ 10 | ≤ 10 | ≤ 10 | ≤ 10 |  | CCCS(=O)(=O)Nc1ccc(F)c(C(=O)c2c[nH]c3ncc(-c4cccc(O)c4)cc23)c1F [P-2179, Propane-1-sulfonic acid {2,4-difluoro-3-[5-(3-hydroxy-phenyl)-1H-pyrrolo[2,3-b]pyridine-3-carbonyl]-phenyl}-amide] |
| ≤ 10 | ≤ 10 | ≤ 10 | ≤ 10 | ≤ 10 | ≤ 10 | ≤ 10 |  | CCCS(=O)(=O)Nc1ccc(F)c(C(=O)c2c[nH]c3ncc(-c4ccc(S(=O)(=O)N(C)C)cc4)cc23)c1F [P-2185, 4-{3-[2,6-Difluoro-3-(propane-1-sulfonylamino)-benzoyl]-1H-pyrrolo[2,3-b]pyridin-5-yl}-N,N-dimethyl-benzenesulfonamide] |
| ≤ 10 | ≤ 10 |  | ≤ 10 |  | ≤ 10 | ≤ 10 | ≤ 10 | CCCS(=O)(=O)Nc1ccc(F)c(C(=O)c2c[nH]c3ncc(-c4cnc(N5CCCC5)nc4)cc23)c1F [P-2219, Propane-1-sulfonic acid {2,4-difluoro-3-[5-(2-pyrrolidin-1-yl-pyrimidin-5-yl)-1H-pyrrolo[2,3-b]pyridine-3-carbonyl]-phenyl}-amide] |
|  |  |  |  |  | ≤ 10 |  | ≤ 10 | CCS(=O)(=O)Nc1ccc(F)c(C(=O)c2c[nH]c3ncc(-c4ccc(Cl)cc4)cc23)c1F [P-2269, Ethanesulfonic acid {3-[5-(4-chloro-phenyl)-1H-pyrrolo[2,3-b]pyridine-3-carbonyl]-2,4-difluoro-phenyl}-amide] |
|  | ≤ 10 |  | ≤ 10 |  | ≤ 10 | ≤ 10 | ≤ 10 | CCS(=O)(=O)Nc1ccc(F)c(C(=O)c2c[nH]c3nccc(OC)c23)c1F [P-2279, Ethanesulfonic acid [2,4-difluoro-3-(4-methoxy-1H-pyrrolo[2,3-b]pyridine-3-carbonyl)-phenyl]-amide] |
| ≤ 10 | ≤ 10 | ≤ 10 |  | ≤ 10 | ≤ 10 | ≤ 10 |  | CC(C)CS(=O)(=O)Nc1ccc(F)c(C(=O)c2c[nH]c3ncc(-c4ccc(F)cc4)cc23)c1F [P-2298, 2-Methyl-propane-1-sulfonic acid {2,4-difluoro-3-[5-(4-fluoro-phenyl)-1H-pyrrolo[2,3-b]pyridine-3-carbonyl]-phenyl}-amide] |
| ≤ 10 | ≤ 10 | ≤ 10 |  | ≤ 10 | ≤ 10 | ≤ 10 |  | O=C(c1c(F)ccc(NS(=O)(=O)CCC(F)(F)F)c1F)c1c[nH]c2ncc(-c3ccc(F)cc3)cc12 [P-2326, 3,3,3-Trifluoro-propane-1-sulfonic acid {2,4-difluoro-3-[5-(4-fluoro-phenyl)-1H-pyrrolo[2,3-b]pyridine-3-carbonyl]-phenyl}-amide] |
| ≤ 10 | ≤ 10 | ≤ 10 |  | ≤ 10 | ≤ 10 | ≤ 10 |  | O=C(c1c(F)ccc(NS(=O)(=O)CC(F)(F)F)c1F)c1c[nH]c2ncc(Br)cc12 [P-2334, 2,2,2-Trifluoro-ethanesulfonic acid [3-(5-bromo-1H-pyrrolo[2,3-b]pyridine-3-carbonyl)-2,4-difluoro-phenyl]-amide] |
|  |  | ≤ 10 |  |  | ≤ 10 |  | ≤ 10 | Cc1cnc2[nH]cc(C(=O)c3cccc(NS(=O)(=O)C4CCCC4)c3)c2c1 [P-2459, Cyclopentanesulfonic acid [3-(5-methyl-1H-pyrrolo[2,3-b]pyridine-3-carbonyl)-phenyl]-amide] |
| ≤ 10 |  | ≤ 10 |  |  | ≤ 10 | ≤ 10 | ≤ 10 | O=C(O)CCc1cccc(-c2cnc3[nH]cc(C(=O)c4cccc(NS(=O)(=O)C5CCCC5)c4)c3c2)c1 [P-2466, 3-{3-[3-(3-Cyclopentanesulfonylamino-benzoyl)-1H-pyrrolo[2,3-b]pyridin-5-yl]-phenyl}-propionic acid] |
